Key:
gastrointestinal mucosa = experiment: Test 1 (NEM): gastric tolerability of precursor drugs in rats treated or not with N-ethylmaleimide; conditions: rats, sacrifice after 24 hours
Method: The animals (rats) are distributed in the following groups (no. 10 animals for group):
• 1° group: treatment: only carrier (aqueous suspension 1% w/v of carboxymethylcellulose, dose: 5 ml/Kg when the drug is administered by os, or a physiologic solution when parenterally administered, i.e. by subcutaneous, intraperitoneal, intravenous or intramuscular route), • 2° group: treatment: carrier as above defined+NEM, B) Groups Treated with the Drug: • group I: treatment: carrier+drug, • group II: treatment: carrier+drug+NEM.
The administration routes are those known for the drug, and can be the oral or subcutaneous, intraperitoneal, intravenous or intramuscular route.
(§1) The animals are sacrificed after 24 hours and then one proceeds to the evaluation of the damage to the gastrointestinal mucosa.
Test 1—Experimental Model in Vivo with N-ethylmaleimide (NEM): Study of the Gastric Tolerability of Some Drugs Screened as Precursors of the Compounds of the Invention.
The animals (rats, weight about 200 g) are distributed in the following groups (No. 10 animals for group):
• 1° group: treatment: only carrier (aqueous suspension 1% w/v of carboxymethylcellulose, dose: 5 ml/Kg when the drug is administered by os, physiologic solution when by parenteral route), • 2° group: treatment: carrier+NEM B) Groups Administered with Each Drug: • group I: treatment: carrier+drug, • group II: treatment: carrier+drug+NEM.
The drug is administered one hour later, in suspension in the carrier. Animals are sacrificed after 24 hours and evaluation of the damage to the gastrointestinal mucosa is made by counting the number of rats, inside each group, with lesions to the stomach at a visual inspection. The total number of said rats is then divided by the total number of rats of the group and multiplied by 100.

[1] = tested on: gastrointestinal mucosa, GPT, blood pressure; conditions: rat, in vivo
Method: The endothelial dysfunction is evaluated by determining the damage to the gastrointestinal mucosa, the hepatic damage and blood hypertension induced by administration of L-NAME.
The animals (rats) are divided in groups as herein below shown. The group receiving L-NAME is treated for 4 weeks with said compound dissolved at a concentration of 400 mg/litre in drinking water. The following groups are constituted (No. 10 animals for group):
• 1° group: only carrier (aqueous suspension 1% w/v of carboxymethylcellulose, dose: 5 ml/Kg when the drug is administered by os, phisiologic solution when administered parenterally), • 2° group: carrier+L-NAME, B) Groups Administered with the Drug: • 3° group: carrier+drug, • 4° group: carrier+drug+L-NAME.
The administration routes are those known for the drug, and can be the oral or subcutaneous, intraperiteneal, intravenous or intramuscular route. […] The drug is administered once a day for 4 weeks.
At the end of the four weeks treatment access to water is prevented and after 24 hours the animals are sacrificed.
One hour before the sacrifice blood-pressure is determined, and a blood pressure increase is taken as an evaluation of the damage to vascular endothelium. […] The hepatic damage is determined by evaluation of the glutamic-pyruvic transaminase (GPT increase) after sacrifice.
Test 3-Experimental in Vivo Model with N^w-nitro-L-arginine-methyl ester (L-NAME): Gastric Tolerability (Gastrointestinal Damage Incidence), Hepatic (GPT Dosage, Glutamic-pyruvic Transaminase) and Cardiovascular (Blood Pressure) Tolerability of Some Drugs Screened as Precursors of the Compounds of the Invention.
The endothelial dysfunction is evaluated by determining the damage induced by L-NAME administration to the gastrointestinal mucosa, the hepatic damage (GPT increase), and the vascular endothelium or cardiovascular damage as blood hypertension.
The animals (rats, average weight 200 g) are divided in groups as herein below described. The group receiving L-NAME is treated for 4 weeks with said compound dissolved at the concentration of 400 mg/litre in drinking water. The following groups (No. 10 animals for group) are constituted:
• 1° group: treatment: only carrier (aqueous suspension 1% w/v of carboxymethylcellulose, dose: 5 ml/Kg when the drug is administered by os, physiologic solution when by parenteral route), • 2° group: treatment: carrier+L-NAME, B) Groups Treated with the Drug: • 3° group: treatment: carrier+drug, • 4° group: treatment: carrier+drug+L-NAME.
Each drug is administered once a day for 4 weeks.
At the end of the four weeks access to water is prevented and after 24 hours the animals are sacrificed.
One hour before the sacrifice blood pressure is determined and a blood pressure increase is taken as an indication of a damage being occurred to vascular endothelium.
The hepatic damage is determined by evaluation after the sacrifice of the glutamic-pyruvic transaminase (GPT increase).
The % gastric lesions have been determined as in Test 1.

rats = experiment: in vivo; conditions: rats not treated with NEM, single dose, s.c.
Method: as §1

gastric mucosa = experiment: Example F7: gastric tolerability after oral administration in NEM-treated rats; format: in vivo; conditions: rats all receiving NEM, p.o., 0.02 mmoles/Kg of each component
Method: Example F1 was repeated with four groups of rats (each group of ten animals), all of them receiving NEM, and orally administered as it follows: • a. control group: the vehicle formed of an aqueous suspension 1% w/v of carboxymethylcellulose, • b. one group (group b—comparative) administered at the same time with 5 mg/Kg (0.02 mmoles/Kg) of flurbiprofen+2.7 mg/Kg (0.02 mmoles/Kg) of 4-thiazolidin carboxilic acid in the same above vehicle, • c. one group (group c—comparative) administered at the same time with 7.4 mg/Kg (0.02 mmoles/Kg) of 4-(nitroxy)butyl ester of flurbiprofen, synthetized according to the method described in WO 94/12463, +2.7 mg/Kg (0.02 mmoles/Kg) of 4-thiazolidin carboxilic in the same above vehicle, • d. one group (group d) administered with 9.8 mg/Kg (0.02 mmoles/Kg) of 3-[2-fluoro-α-methyl-(1,1′-biphenyl)-4-acetyl]thiazolidin-4-carboxylic acid 4-(nitroxy)butyl ester synthetized as from Ex. 1(indicated as NO-Flurbiprofen in Table VII), in the above same vehicle.

Structure (SMILES)	Gastro-enteropathy (% incidence) with NEM (gastrointestinal mucosa; NEM 25 mg/kg s.c. one hour before drug at maximum tolerated dose) [%]	Gastro-enteropathy (% incidence) without NEM (gastrointestinal mucosa; single maximum tolerated dose, without NEM) [%]	GPT % without L-NAME [1] [%]	Gastroenteropathy % without L-NAME ([1]; 4 weeks) [%]	maximum tolerated dose (dose (mg/Kg)/admin. route) (rats)	Gastropathy % incidence (gastric mucosa) [%]
CCCCC(C)(O)C/C=C/[C@H]1[C@H](O)CC(=O)[C@@H]1CCCCCCC(=O)OC (mixture of isomers) [Misoprostol]	0	0	100	0	0.5/s.c. mg/Kg	
CC(C(=O)N1CSCC1C(=O)OCCCCO[N+](=O)[O-])c1ccc(-c2ccccc2)c(F)c1 (stereo not drawn) [Example 1, 3-[2-fluoro-α-methyl-(1,1′-biphenyl)-4-acetyl]thiazolidin-4-carboxylic acid 4-(nitroxy)butyl ester]						0

Source: patent publication US7402600B2, “Nitroderivatives of cardiovascular agents” (NicOx S.A., priority 1999, dated 2008)
